Measurements taken from patent publication US10966994B2, “Thromboxane receptor antagonists” (ATXA THERAPEUTICS LIMITED, priority 2015, dated 2021).

Columns and labels:
Format in all cases: cell-based
human platelets = test: U46619-mediated platelet aggregation ex vivo (PAP-8E aggregometer); conditions: for IC50: Platelet, human PRP, 10 min pre-incubation, 1 μM U46619, estimated IC50, read-out: IC50 values for Inhibition of U46619-Mediated Platelet Aggregation
Description: In order to evaluate NTP42-NTP49 in a second independent assay, the effect of the compounds on U46619-mediated platelet aggregation assays was examined. Clearly, from an efficacy point of view, this is an important assay and, physiologically, the more relevant with respect to the therapeutic target.
The compounds were tested in side-by-side assays with the previously identified key lead compound TP20 using the PAP-8E platelet aggregometer.
(§1) PRP was prepared from blood taken from healthy volunteers into syringes containing 3.8% sodium citrate and 10 μM indomethacin such that the final ratio of anticoagulant to blood was 1:9. Aliquots of PRP (300 μl) were pre-incubated for 10 min with the TP antagonists, TP20, NTP42, NTP43, NTP44, NTP45, NTP47, NTP48 and NTP49, where 2-fold serial dilutions from 0.25 μM was prepared for each, prior to stimulating platelets with 1 μM U46619, incubated at 37° C., with stirring. The results are presented as Percentage Aggregation (mean±S.E.M.), as determined by changes in light transmission over time using the PAP-8E Platelet Aggregation Profiler and represents data from 4 independent experiments (n=4).
as §1, with “TP20, NTP4,” for “TP20,”, “NTP42, NTP43” for “NTP42, NTP43, NTP44, NTP45, NTP47, NTP48”, “and NTP48,” for “and NTP49,”, “from 1” for “from 0.25”, “from at least 3” for “from 4”, “experiments (n≥3).” for “experiments (n=4).”

TPα = target: T1, TPα (Homo sapiens, UniProt P21731); test: U46619-mediated calcium mobilization in HEK.TPα cells; conditions: for inhibition of U46619-mediated calcium mobilization, TPα (in words): 1 μM U46619; for IC50: 1 μM U46619, estimated IC50, mean ± S.E.M., read-out: IC50 values for Inhibition of U46619-Mediated [Ca2+]i Mobilisation, TPα
T1 construct: expressed in transfected cells; host or cells: HEK 293 (HEK.TPα, isolate HR #4)
T1 sequence (P21731 1-343): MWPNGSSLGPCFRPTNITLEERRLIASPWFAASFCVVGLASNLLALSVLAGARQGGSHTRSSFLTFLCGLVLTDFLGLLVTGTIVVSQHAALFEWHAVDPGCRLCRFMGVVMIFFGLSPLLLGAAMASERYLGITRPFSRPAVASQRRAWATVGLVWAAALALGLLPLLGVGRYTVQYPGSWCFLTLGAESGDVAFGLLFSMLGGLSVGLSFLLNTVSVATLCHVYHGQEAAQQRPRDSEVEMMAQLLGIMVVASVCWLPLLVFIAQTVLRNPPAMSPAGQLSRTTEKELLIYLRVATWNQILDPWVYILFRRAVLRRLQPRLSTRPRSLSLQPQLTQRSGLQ
Description: (§2) NTP42-NTP49, northern group variants of NTP4, were assessed through calcium mobilization assays using proprietary HEK 293 cells over-expressing the thromboxane (TX)A2 receptor, α (TPα) and β (TPβ) isoforms, referred to as HEK.TPα and HEK.TPβ cells, respectively. The initial screening involved dose-responses assays (concentrations used 0.0001 (TPβ only), 0.001, 0.1, 1 & 10 μM; (TPα and TPβ)) followed by more focused, full dose response assays (concentration range: 0.00001 to 10 μM) for determination of IC50 values where the effect of the compounds on calcium mobilized in response to the TXA2 mimetic U46619 (1 μM) were performed in side-by-side comparison with the key lead compounds TP20 and NTP4.
(§3) As stated, NTP42-NTP49 were screened through calcium mobilization assays using HEK.TPα and HEK.TPβ cells over-expressing the thromboxane (TX)A2 receptor, α (TPα) and β (TPβ) isoforms, respectively. The initial screening involved dose-response assays where the compounds, used at 0.0001 (TPβ only), 0.001, 0.1, 1 & 10 μM (TPα and TPβ), were assessed for their ability to inhibit the TXA2 mimetic U46619 (1 μM). The compounds were tested in side-by-side assays with the previously identified key lead compounds TP20 and NTP4.
(§4) HEK.TPα (HR #4) cells, preloaded with Fluo-4, were incubated with the TP20, NTP4, NTP42, NTP43, NTP44, NTP45, NTP47, NTP48 & NTP49 where each antagonist was used at 0.001, 0.1, 1 & to 10 μM, as indicated, prior to stimulation with 1 μM U46619. Data is presented as the mean (±S.E.M.) percentage of the agonist-induced response in vehicle-treated cells (Percentage of Control; %) and represents data from at least 4 independent experiments were cells were treated in duplicate.
as §4, with “NTP42, NTP43 and” for “NTP42, NTP43, NTP44, NTP45, NTP47,”, “NTP48” for “NTP48 & NTP49”, “at 0.00001-10” for “at 0.001, 0.1, 1 & to 10”, “the agonist induced” for “the agonist-induced”, “least 3” for “least 4”

IP receptor = IP receptor (Homo sapiens, UniProt P43119); test: Specificity testing, IP receptor signaling
Chain of IP receptor (P43119 whole entry): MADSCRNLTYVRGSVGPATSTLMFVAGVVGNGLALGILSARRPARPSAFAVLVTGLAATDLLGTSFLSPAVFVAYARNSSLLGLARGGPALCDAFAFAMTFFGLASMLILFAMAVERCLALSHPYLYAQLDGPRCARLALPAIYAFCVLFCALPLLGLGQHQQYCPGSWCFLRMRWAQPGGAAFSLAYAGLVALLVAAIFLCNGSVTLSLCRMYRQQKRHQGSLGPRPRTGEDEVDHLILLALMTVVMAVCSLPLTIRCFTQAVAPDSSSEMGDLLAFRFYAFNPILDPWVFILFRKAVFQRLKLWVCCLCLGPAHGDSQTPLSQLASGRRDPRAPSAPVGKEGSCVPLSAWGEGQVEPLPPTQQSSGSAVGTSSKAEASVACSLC
Description: There is no or minimal inhibition of the majority of the non-TP-mediated signaling observed in the presence of either NTP42 & NTP48. Where there is inhibition of signaling, it is observed at the 10 μM concentration only. […] Compared to NTP42, NTP48 has less of an effect on the signaling of the non-TP prostanoid receptors and therefore, may be considered more favorable in this context.

FP1 receptor = FP1 receptor (Homo sapiens, UniProt P43088); test: Specificity testing, FP1 receptor signaling
Chain of FP1 receptor (P43088 whole entry): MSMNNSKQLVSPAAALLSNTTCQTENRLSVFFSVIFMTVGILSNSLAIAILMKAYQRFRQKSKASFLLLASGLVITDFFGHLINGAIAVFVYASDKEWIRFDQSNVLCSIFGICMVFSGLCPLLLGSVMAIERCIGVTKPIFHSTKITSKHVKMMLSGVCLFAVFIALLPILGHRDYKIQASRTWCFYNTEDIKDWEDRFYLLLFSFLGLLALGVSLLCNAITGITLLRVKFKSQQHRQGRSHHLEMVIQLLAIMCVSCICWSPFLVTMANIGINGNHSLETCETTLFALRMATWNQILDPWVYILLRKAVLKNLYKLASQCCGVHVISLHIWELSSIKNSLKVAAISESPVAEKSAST

TPβ = target: T2, TPβ (Homo sapiens, UniProt P21731); test: U46619-mediated calcium mobilization in HEK.TPβ cells; conditions: for inhibition of U46619-mediated calcium mobilization, TPβ (in words): 1 μM U46619; for IC50: 1 μM U46619, estimated IC50, mean ± S.E.M., read-out: IC50 values for Inhibition of U46619-Mediated [Ca2+]i Mobilisation, TPβ
T2 construct: expressed in transfected cells; host or cells: HEK 293 (HEK.TPβ, isolate EM #8)
T2 sequence (P21731 1-407 isoform P21731-2): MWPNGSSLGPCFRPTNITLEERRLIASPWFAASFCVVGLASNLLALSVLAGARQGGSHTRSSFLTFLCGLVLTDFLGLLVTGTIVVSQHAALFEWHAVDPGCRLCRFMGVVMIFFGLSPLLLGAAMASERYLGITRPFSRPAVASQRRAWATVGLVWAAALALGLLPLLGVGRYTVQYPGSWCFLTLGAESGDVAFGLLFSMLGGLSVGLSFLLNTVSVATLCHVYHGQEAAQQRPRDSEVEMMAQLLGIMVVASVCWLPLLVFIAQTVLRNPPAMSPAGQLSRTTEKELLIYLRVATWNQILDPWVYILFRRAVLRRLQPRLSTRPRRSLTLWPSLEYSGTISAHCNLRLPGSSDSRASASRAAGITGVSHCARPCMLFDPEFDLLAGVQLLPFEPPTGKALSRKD
Description: as §2, §3
as §4, with “HEK.TPβ (EM #8) cells, preloaded” for “HEK.TPα (HR #4) cells, preloaded”, “used at 0.0001, 0.001, 0.1,” for “used at 0.001, 0.1,”
as §4, with “HEK.TPβ (EM #8)” for “HEK.TPα (HR #4)”, “NTP43 and” for “NTP43, NTP44, NTP45, NTP47,”, “NTP48” for “NTP48 & NTP49”, “0.00001-10” for “0.001, 0.1, 1 & to 10”

| Compound | IC50 (human platelets) [nM] | IC50 (TPβ) [nM] | inhibition of U46619-mediated calcium mobilization, TPα (in words) (TPα) | effect on the IP receptor (IP receptor) | effect on the FP1 receptor (FP-mediated signaling) (FP1 receptor) | inhibition of U46619-mediated calcium mobilization, TPβ (in words) (TPβ) | IC50 (TPα) [nM] | percentage reduction in responses, IP (IP receptor; maximal inhibition, at 10 μM only) [%] | inhibition of U46619-mediated aggregation of human platelet ex vivo (in words) (human platelets; 1 μM U46619) |
| --- | --- | --- | --- | --- | --- | --- | --- | --- | --- |
| CC(C)(C)NC(=O)NS(=O)(=O)c1cc(C#N)ccc1Oc1cccc(-c2ccc(OC(F)F)cc2)c1 [NTP42] | 10.1 ± 1.07 | 8.25 ± 0.73 |  | no effect | no effect |  | 56.2 ± 4.84 | 50 |  |
| CN(C)C(=O)c1ccc(-c2cccc(Oc3ccc(C#N)cc3S(=O)(=O)NC(=O)NC(C)(C)C)c2)cc1 [NTP48, 4-[3-[2-(tert-Butylcarbamoylsulfamoyl)-4-cyano-phenoxy]phenyl]-N,N-dimethyl-benzamide] | 9.45 ± 1.38 | 5.06 ± 1.5 |  | no effect | no effect |  | 90.1 ± 6.43 |  |  |
| COc1ccc(-c2cccc(Oc3ccc([N+](=O)[O-])cc3S(=O)(=O)NC(=O)NC(C)(C)C)c2)cc1 [TP20, reference compound] | 4.62 ± 0.72 |  | potently inhibited | like TP20 and NTP4, neither NTP42, NTP43 nor NTP48 exhibited any effect | like TP20 and NTP4, neither NTP42, NTP43 nor NTP48 exhibited any effect | potently inhibited | 125 ± 11.4 |  | potently inhibit |

Further lines, with some results ahead:

| IC50 (human platelets) [nM] | IC50 (TPβ) [nM] | Compound | inhibition of U46619-mediated calcium mobilization, TPα (in words) (TPα) | effect on the IP receptor (IP receptor) | effect on the FP1 receptor (FP-mediated signaling) (FP1 receptor) | inhibition of U46619-mediated calcium mobilization, TPβ (in words) (TPβ) | IC50 (TPα) [nM] | percentage reduction in responses, IP (IP receptor; maximal inhibition, at 10 μM only) [%] | inhibition of U46619-mediated aggregation of human platelet ex vivo (in words) (human platelets; 1 μM U46619) |
| --- | --- | --- | --- | --- | --- | --- | --- | --- | --- |
| 21.3 ± 1.01 |  | COc1ccc(-c2cccc(Oc3ccc(C#N)cc3S(=O)(=O)NC(=O)NC(C)(C)C)c2)cc1 [NTP4, reference compound] | potently inhibited | like TP20 and NTP4, neither NTP42, NTP43 nor NTP48 exhibited any effect | like TP20 and NTP4, neither NTP42, NTP43 nor NTP48 exhibited any effect | potently inhibited |  |  |  |
| 22 ± 2.03 | 18.4 ± 1.63 | CC(C)(C)NC(=O)NS(=O)(=O)c1cc(C#N)ccc1Oc1cccc(-c2ccc(OC(F)(F)F)cc2)c1 [NTP43] |  | not to exhibit any effect | not to exhibit any effect |  | 105 ± 7.95 |  |  |
